Laboratory results reported in patent US10004701B2, “Methods and compositions for treating infection” (UNIVERSITY OF ROCHESTER, priority 2012, dated 2018).
Structures can show the parent of a compound that is named as a salt. Where two headings read alike, the source gives them in different places.

What was measured:
Assay in all cases: AK assay 384-well format, Prestwick library screening
[1] = system: E. coli; type: cell-based, Escherichia coli; conditions: 50 μM final drug concentration; for fold induction at 50 µM: Escherichia coli, 3 h
[2] = system: E. cloacae; type: cell-based, Enterobacter cloacae; conditions: 50 μM final drug concentration; for fold induction at 50 µM: Enterobacter cloacae, 3 h
[3] = system: E. faecium; type: cell-based, Enterococcus faecium; conditions: 50 μM final drug concentration; for fold induction at 50 µM: Enterococcus faecium, 3 h
[4] = system: K. pneumoniae; type: cell-based, Klebsiella pneumoniae; conditions: 50 μM final drug concentration; for fold induction at 50 µM: Klebsiella pneumoniae, 3 h
[5] = system: A. baumannii strain 98-37-09; type: cell-based, Acinetobacter baumannii; conditions: 50 μM final drug concentration; for fold induction at 50 µM: Acinetobacter baumannii, 983709, 3 h
[6] = system: P. aeruginosa; type: cell-based, Pseudomonas aeruginosa; conditions: 50 μM final drug concentration; for fold induction at 50 µM: Pseudomonas aeruginosa, 3 h
[7] = system: S. aureus strain USA300-0114; type: cell-based, Staphylococcus aureus; conditions: 50 μM final drug concentration; for fold induction at 50 µM: Staphylococcus aureus, USA300, 3 h
[8] = 384-well format, cutoff for positive-scoring molecules 3-fold increase, read-out: AK-based Prestwick Library Screening Results, E. coli (increase in extracellular AK activity)
[9] = 384-well format, cutoff for positive-scoring molecules 3-fold increase, read-out: AK-based Prestwick Library Screening Results, E. cloacae (increase in extracellular AK activity)
[10] = 384-well format, cutoff for positive-scoring molecules 3-fold increase, read-out: AK-based Prestwick Library Screening Results, E. faecium (increase in extracellular AK activity)
[11] = 384-well format, cutoff for positive-scoring molecules 3-fold increase, read-out: AK-based Prestwick Library Screening Results, K. pneumoniae (increase in extracellular AK activity)
[12] = 384-well format, cutoff for positive-scoring molecules 3-fold increase, read-out: AK-based Prestwick Library Screening Results, A. baumannii (increase in extracellular AK activity)
[13] = 384-well format, cutoff for positive-scoring molecules 3-fold increase, read-out: AK-based Prestwick Library Screening Results, P. aeruginosa (increase in extracellular AK activity)
[14] = 384-well format, cutoff for positive-scoring molecules 3-fold increase, read-out: AK-based Prestwick Library Screening Results, S. aureus (increase in extracellular AK activity)
[15] = planktonic, […], read-out: AK-based Prestwick Library Screening Results, E. coli (fold increase in extracellular AK activity)
[16] = planktonic, […], read-out: AK-based Prestwick Library Screening Results, E. cloacae (fold increase in extracellular AK activity)
[17] = planktonic, […], read-out: AK-based Prestwick Library Screening Results, E. faecium (fold increase in extracellular AK activity)
[18] = planktonic, […], read-out: AK-based Prestwick Library Screening Results, K. pneumoniae (fold increase in extracellular AK activity)
[19] = planktonic, […], read-out: AK-based Prestwick Library Screening Results, A. baumannii (fold increase in extracellular AK activity)
[20] = planktonic, […], read-out: AK-based Prestwick Library Screening Results, P. aeruginosa (fold increase in extracellular AK activity)
[21] = planktonic, […], read-out: AK-based Prestwick Library Screening Results, S. aureus (fold increase in extracellular AK activity)
[22] = planktonic, cutoff for positive 3-fold increase, read-out: AK-based Prestwick Library Screening Results, E. coli (fold increase in extracellular AK activity)
[23] = planktonic, cutoff for positive 3-fold increase, read-out: AK-based Prestwick Library Screening Results, E. cloacae (fold increase in extracellular AK activity)
[24] = planktonic, cutoff for positive 3-fold increase, read-out: AK-based Prestwick Library Screening Results, E. faecium (fold increase in extracellular AK activity)
[25] = planktonic, cutoff for positive 3-fold increase, read-out: AK-based Prestwick Library Screening Results, K. pneumoniae (fold increase in extracellular AK activity)
[26] = planktonic, cutoff for positive 3-fold increase, read-out: AK-based Prestwick Library Screening Results, A. baumannii (fold increase in extracellular AK activity)
[27] = planktonic, cutoff for positive 3-fold increase, read-out: AK-based Prestwick Library Screening Results, P. aeruginosa (fold increase in extracellular AK activity)
[28] = planktonic, cutoff for positive 3-fold increase, read-out: AK-based Prestwick Library Screening Results, S. aureus (fold increase in extracellular AK activity)

SMILES: Nc1cc(-c2ccncc2)c[nH]c1=O [Amrinone]
- fold induction at 50 µM ([1]; cutoff for positive-scoring molecules 3-fold increase, read-out: AK-based Prestwick Library Screening Results, E. coli (fold increase in extracellular AK activity)): 1.3
- fold induction at 50 µM ([2]; cutoff for positive-scoring molecules 3-fold increase, read-out: AK-based Prestwick Library Screening Results, E. cloacae (fold increase in extracellular AK activity)): 44
- fold induction at 50 µM ([3]; cutoff for positive-scoring molecules 3-fold increase, read-out: AK-based Prestwick Library Screening Results, E. faecium (fold increase in extracellular AK activity)): 1
- fold induction at 50 µM ([4]; cutoff for positive-scoring molecules 3-fold increase, read-out: AK-based Prestwick Library Screening Results, K. pneumoniae (fold increase in extracellular AK activity)): 1.1
- fold induction at 50 µM ([5]; cutoff for positive-scoring molecules 3-fold increase, read-out: AK-based Prestwick Library Screening Results, A. baumannii (fold increase in extracellular AK activity)): 1.2
- fold induction at 50 µM ([6]; cutoff for positive-scoring molecules 3-fold increase, read-out: AK-based Prestwick Library Screening Results, P. aeruginosa (fold increase in extracellular AK activity)): 1
- fold induction at 50 µM ([7]; cutoff for positive-scoring molecules 3-fold increase, read-out: AK-based Prestwick Library Screening Results, S. aureus (fold increase in extracellular AK activity)): 1.1

SMILES: CCC1(C)CC(=O)NC1=O (stereo not shown) [Ethosuximide]
- fold induction at 50 µM [1, 8]: 0.6
- fold induction at 50 µM [2, 9]: 0.6
- fold induction at 50 µM [3, 10]: 0.9
- fold induction at 50 µM [4, 11]: 0.6
- fold induction at 50 µM [5, 12]: 0.5
- fold induction at 50 µM [6, 13]: 0.5
- fold induction at 50 µM [7, 14]: 0.5

SMILES: O=C(C1CCCCC1)N1CC(=O)N2CCc3ccccc3C2C1 (stereo not shown) [Praziquantel]
- fold induction at 50 µM [1, 8]: 0.9
- fold induction at 50 µM [2, 9]: 0.7
- fold induction at 50 µM [3, 10]: 1
- fold induction at 50 µM [4, 11]: 0.6
- fold induction at 50 µM [5, 12]: 0.7
- fold induction at 50 µM [6, 13]: 0.6
- fold induction at 50 µM [7, 14]: 0.8

SMILES: CN(CCCCCCCCCCN(C)C(=O)Oc1cccc([N+](C)(C)C)c1)C(=O)Oc1cccc([N+](C)(C)C)c1 [Demecarium bromide]
- fold induction at 50 µM [1, 15]: 1.4
- fold induction at 50 µM [2, 16]: 2
- fold induction at 50 µM [3, 17]: 1
- fold induction at 50 µM [4, 18]: 1
- fold induction at 50 µM [5, 19]: 1.1
- fold induction at 50 µM [6, 20]: 1.3
- fold induction at 50 µM [7, 21]: 0.8

SMILES: CN1C(C)(C)CCCC1(C)C [Pempidine tartrate]
- fold induction at 50 µM [1, 15]: 1.1
- fold induction at 50 µM [2, 16]: 1.5
- fold induction at 50 µM [3, 17]: 1
- fold induction at 50 µM [4, 18]: 1
- fold induction at 50 µM [5, 19]: 1.1
- fold induction at 50 µM [6, 20]: 1.1
- fold induction at 50 µM [7, 21]: 1.1

SMILES: N=C(N)c1ccc(OCCCCCOc2ccc(C(=N)N)cc2)cc1 [Pentamidine isethionate]
- fold induction at 50 µM [1, 22]: 1.4
- fold induction at 50 µM [2, 23]: 1.4
- fold induction at 50 µM [3, 24]: 1.4
- fold induction at 50 µM [4, 25]: 1.2
- fold induction at 50 µM [5, 26]: 1.2
- fold induction at 50 µM [6, 27]: 1.2
- fold induction at 50 µM [7, 28]: 1.9

SMILES: CC1(C)NC(=O)N(c2ccc([N+](=O)[O-])c(C(F)(F)F)c2)C1=O [Nilutamide]
- fold induction at 50 µM ([1]; […], read-out: AK-based Prestwick Library Screening Results, E. coli (fold increase in extracellular AK activity)): 1.2
- fold induction at 50 µM ([2]; […], read-out: AK-based Prestwick Library Screening Results, E. cloacae (fold increase in extracellular AK activity)): 1.4
- fold induction at 50 µM ([3]; […], read-out: AK-based Prestwick Library Screening Results, E. faecium (fold increase in extracellular AK activity)): 1
- fold induction at 50 µM ([4]; […], read-out: AK-based Prestwick Library Screening Results, K. pneumoniae (fold increase in extracellular AK activity)): 1
- fold induction at 50 µM ([5]; […], read-out: AK-based Prestwick Library Screening Results, A. baumannii (fold increase in extracellular AK activity)): 1.2
- fold induction at 50 µM ([6]; […], read-out: AK-based Prestwick Library Screening Results, P. aeruginosa (fold increase in extracellular AK activity)): 1.2
- fold induction at 50 µM ([7]; […], read-out: AK-based Prestwick Library Screening Results, S. aureus (fold increase in extracellular AK activity)): 1.3

SMILES: C[C@]12CC[C@@H]3c4ccc(O)cc4CC[C@H]3[C@@H]1CC[C@@H]2O [Estradiol-17 beta]
- AK-based Prestwick Library Screening Results, E. coli (increase in extracellular AK activity) ([1]; planktonic E. coli, cutoff for positive-scoring molecules 3-fold increase): 1.1
- AK-based Prestwick Library Screening Results, E. cloacae (increase in extracellular AK activity) ([2]; planktonic E. cloacae, cutoff for positive-scoring molecules 3-fold increase): 1.3
- AK-based Prestwick Library Screening Results, E. faecium (increase in extracellular AK activity) ([3]; planktonic E. faecium, cutoff for positive-scoring molecules 3-fold increase): 0.9
- AK-based Prestwick Library Screening Results, K. pneumoniae (increase in extracellular AK activity) ([4]; planktonic K. pneumoniae, cutoff for positive-scoring molecules 3-fold increase): 0.8
- AK-based Prestwick Library Screening Results, A. baumannii (increase in extracellular AK activity) ([5]; planktonic A. baumannii, cutoff for positive-scoring molecules 3-fold increase): 0.8
- AK-based Prestwick Library Screening Results, P. aeruginosa (increase in extracellular AK activity) ([6]; planktonic P. aeruginosa, cutoff for positive-scoring molecules 3-fold increase): 1.0
- AK-based Prestwick Library Screening Results, S. aureus (increase in extracellular AK activity) ([7]; planktonic S. aureus, cutoff for positive-scoring molecules 3-fold increase): 0.8

SMILES: C[C@H]1CC[C@]2(NC1)O[C@H]1C[C@H]3[C@@H]4CC[C@H]5C[C@@H](O)CC[C@]5(C)[C@H]4CC[C@]3(C)[C@H]1[C@@H]2C [Tomatidine]
- fold induction at 50 µM ([1]; planktonic E. coli, […], read-out: AK-based Prestwick Library Screening Results, E. coli (increase in extracellular AK activity)): 0.7
- fold induction at 50 µM ([2]; planktonic E. cloacae, […], read-out: AK-based Prestwick Library Screening Results, E. cloacae (increase in extracellular AK activity)): 1
- fold induction at 50 µM ([3]; planktonic E. faecium, […], read-out: AK-based Prestwick Library Screening Results, E. faecium (increase in extracellular AK activity)): 1.2
- fold induction at 50 µM ([4]; planktonic K. pneumoniae, […], read-out: AK-based Prestwick Library Screening Results, K. pneumoniae (increase in extracellular AK activity)): 0.6
- fold induction at 50 µM ([5]; planktonic A. baumannii, […], read-out: AK-based Prestwick Library Screening Results, A. baumannii (increase in extracellular AK activity)): 0.7
- fold induction at 50 µM ([6]; planktonic P. aeruginosa, […], read-out: AK-based Prestwick Library Screening Results, P. aeruginosa (increase in extracellular AK activity)): 0.7
- fold induction at 50 µM ([7]; planktonic S. aureus, […], read-out: AK-based Prestwick Library Screening Results, S. aureus (increase in extracellular AK activity)): 0.5

SMILES: CN1[C@@H]2CC[C@H]1C[C@@H](OC(=O)c1c[nH]c3ccccc13)C2 [Tropisetron HCl]
- fold induction at 50 µM [1, 22]: 1.1
- fold induction at 50 µM [2, 23]: 1.3
- fold induction at 50 µM [3, 24]: 1
- fold induction at 50 µM [4, 25]: 0.8
- fold induction at 50 µM [5, 26]: 1.3
- fold induction at 50 µM [6, 27]: 1.1
- fold induction at 50 µM [7, 28]: 0.9
